Source: patent US20110245294A1, “METHODS OF IMPROVING QUALITY OF SLEEP” (THERAVIDA, INC., priority 2010, published 2011)

Key:
[1] = tested on: patients being treated for OAB
Description: Enrollment of subjects already taking this medication was used to enable the collection of steady-state baseline information and to minimize discontinuations during the 4-week treatment period. On three consecutive days, subjects were asked to complete paper diaries where the subject answered questions related to the degree of difficulty of sleep and responded by using a VAS. These questions and VAS have been validated and used in other clinical studies. Furthermore, each subject relinquished the completed diary at the end of each treatment period following a review by clinic staff.
The methods used to collect information for assessment of quality of sleep, subjects were asked specific questions and they rated their quality of sleep using a VAS. The mean of the values obtained on each of the three days was used as the sole value for the baseline or treatment value. The methods used to evaluate effect on quality of sleep of the combination and oxybutynin alone are widely used and considered standard.
The VAS is a validated scale utilized in clinical trials and registrational studies of many drugs. Patients were instructed on how to complete the diary over 3 consecutive days and perform VAS assessments for quality of sleep on the diary days. The ratings were from 0 to 100 on a 100-mm line, and the patient was asked to rate themself by marking the horizontal line. For instance, quality of sleep was quantified as 0=easy and 100=difficult.

healthy volunteers = details: some studies have suggested; cited from earlier work

Compound | VAS quality of sleep response versus baseline or monotherapy, in words ([1]; 100-point mm scale, reduction from baseline) | Change in LSM from Baseline in Quality of Sleep ([1]; ITT population, N = 42, lower scores indicate improvement from baseline, P value 0.0073 between treatments) [mm] | Quality of Sleep Value (VAS), mean ([1]; mean over subjects, 0=easy, 100=difficult, 2 weeks treatment, baseline mean 37.6 mm) [mm] | effect on sleep (healthy volunteers)
CCN(CC)CC#CCOC(=O)C(O)(c1ccccc1)C1CCCCC1 (centres unmarked) [Oxybutynin, oxybutynin] | unchanged from baseline | 3.7 | 41.3 | adverse effect on the sleep
O=C(O[C@H]1C[C@H]2CC[C@@H](C1)[N+]21CCCC1)C(O)(c1ccccc1)c1ccccc1 [trospium] |  |  |  | adverse effect on the sleep
